Results on 47 compounds are retold here after US20190142810A1, “MITOCHONDRIAL INHIBITORS FOR THE TREATMENT OF PROLIFERATION DISORDERS” (Basilea Pharmaceutica International AG, priority 2016, published 2019).

By IC50 is commonly meant the point on the concentration scale where inhibition reaches its midpoint. A high value points to weaker potency.

In one assay the test system is HeLa galactose cells. Briefly: Cell growth and proliferation assay of HeLa galactose cells (crystal violet). It counts as cell-based. To be noted: 72 hours incubation, crystal violet staining, absorbance at 590 nm. As to the method: The cervical tumor cell line HeLa (ATCC, CCL-2) was cultivated in DMEM medium (Invitrogen cat. no. 11971, 4.5 g/L high glucose) containing 10% fetal calf serum (Sigma cat. no. F9665) and 1% Penicillin/Streptomycin (Sigma cat. no. P0781) at 37° C. in 5% CO2. HeLa galactose cells (i.e. HeLa cells that grow in high concentrations of galactose) were generated from HeLa glucose cells (i.e. HeLa cells that grow in high concentrations of glucose) by gradually changing the amount of glucose in the media to zero glucose in the presence of galactose as a sugar source (50% galactose/50% glucose media for one week, then 75% galactose/25% glucose media for one week, to 100% galactose media in the third week). Galactose media (Invitrogen cat. no. 11966) was supplemented with 10 mM galactose (Sigma cat. no. G5388).
Cell Growth and Proliferation Assay of HeLa Galactose and Glucose Cells
HeLa galactose cells and HeLa glucose cells were seeded in 96 well plates (TPP, cat. no 92696) at 2000 and 1500 cells/well, respectively, in 100 μL of complete medium. After overnight incubation the cells were incubated for 72 hours in complete medium containing 0.001% DMSO or compounds (final concentration of DMSO 0.001%). After the medium was removed, cells were fixed and stained by adding 50 μL crystal violet staining (0.2% crystal violet (Sigma-Aldrich cat. no. C0775) in 50% methanol) per well. The plates were incubated for 1 hour at room temperature. Subsequently the stain was decanted and plates were washed 4 times with de-mineralized water. Plates were air-dried for 2 hours. The stain was dissolved by adding 100 μL buffer (0.1 M Tris pH 7.5, 0.2% SDS, 20% ethanol) per well and shaking the plates. Absorbance at 590 nm was measured using a SpectraMax® 250 plate reader (Molecular Devices). Antiproliferative/growth inhibition IC50s were calculated from concentration-response curves using GraphPad Prism software.
In the case of `COCC1CN(C(=O)Nc2nc(C)ns2)CC/C1=C/c1ccc(Cl)cc1F` (centres unmarked) [Example 130, (4Z)-4-[(4-chloro-2-fluoro-phenyl)methylene]-3-(methoxymethyl)-N-(3-methyl-1,2,4-thiadiazol-5-yl)piperidine-1-carboxamide], it took 355 nM to reach half-maximal inhibition (IC50).
In turn, `COCC1CN(C(=O)Nc2nc(C)ns2)CC/C1=C/c1ccc(Cl)cc1F` (centres unmarked) [Example 133] had an IC50 of 100 nM.

The assay is the same for the next values; noted with them: Homo sapiens, HeLa, 72 h, 72 hours incubation, crystal violet staining, absorbance at 590 nm.
In the case of `Cc1nsc(NC(=O)N2CCC(=Cc3ccc(CNCCCN4CCOCC4)cc3F)CC2)n1` [Example 91], it took 492 nM to reach half-maximal inhibition (IC50).
For `Cc1nsc(NC(=O)N2CCC(=Cc3c(F)cc(O)cc3F)CC2)n1` [Example 99, 4-[(2,6-difluoro-4-hydroxy-phenyl)methylene]-N-(3-methyl-1,2,4-thiadiazol-5-yl)piperidine-1-carboxamide], the IC50 worked out at 307 nM.
Compound `COc1ccc(CC2CCN(C(=O)Nc3nc(C)ns3)CC2)c(N)c1` [Example 23] had an IC50 of 356 nM.
Compound `Cc1nsc(NC(=O)N2CCC(=Cc3c(F)cc(NC4CCOC4)cc3F)CC2)n1` (centres unmarked) [Example 150] showed an IC50 of 124 nM.
`Cc1nsc(NC(=O)N2CCC(=Cc3ccc(OCCCO)cc3F)CC2)n1` [Example 107, 4-[[2-fluoro-4-(3-hydroxypropoxy)phenyl]methylene]-N-(3-methyl-1,2,4-thiadiazol-5-yl)piperidine-1-carboxamide] showed a 50% inhibitory concentration (IC50) of 389 nM.
In the case of `NC(=O)Cc1nsc(NC(=O)N2CCC(=Cc3ccc(Cl)cc3F)CC2)n1` [Example 81, N-[3-(2-amino-2-oxo-ethyl)-1,2,4-thiadiazol-5-yl]-4-[(4-chloro-2-fluoro-phenyl)methylene]piperidine-1-carboxamide], the IC50 was 888 nM.
`Cc1nsc(NC(=O)N2CCC(=Cc3ccc(N)cc3F)CC2)n1` [Example 119, 4-[(4-amino-2-fluoro-phenyl)methylene]-N-(3-methyl-1,2,4-thiadiazol-5-yl)piperidine-1-carboxamide] had an IC50 of 159 nM.
In turn, `Cc1nsc(NC(=O)N2CC/C(=C\c3c(F)cc(Cl)cc3F)CC2(C)C)n1` [Example 168] gave an IC50 of 280 nM.
`Cc1nsc(NC(=O)N2CCC(=Cc3ccc(N(C)CCCN)cc3F)CC2)n1` [Example 124] gave an IC50 of 70 nM.
Still for that read-out and setting: with `Cc1nsc(NC(=O)N2CCC(Cc3c(F)cc(Cl)cc3F)CC2(C)C)n1` (centres unmarked) [Example 167] the figure was 500 nM; with `Nc1cc(NC(=O)N2CCC(=Cc3ccc(Cl)cc3F)CC2)ccn1` [Example 131], 264 nM.
In turn, `O=C(Nc1ccnc(CO)c1)N1CCC(=Cc2ccc(Cl)cc2F)CC1` [Example 177, 4-[(4-chloro-2-fluoro-phenyl)methylene]-N-[2-(hydroxymethyl)-4-pyridyl]piperidine-1-carboxamide] had an IC50 of 96 nM.
For `Cc1cc(NC(=O)N2CCC(Cc3ccc(Cl)cc3F)CC2)cnn1` [Example 165], the IC50 turned out to be 383 nM.
`CC(=O)NCCN(C)c1ccc(C=C2CCN(C(=O)Nc3nc(C)ns3)CC2)c(F)c1` [Example 123, 4-[[4-[2-acetamidoethyl(methyl)amino]-2-fluoro-phenyl]methylene]-N-(3-methyl-1,2,4-thiadiazol-5-yl)piperidine-1-carboxamide]: inhibition was half-maximal at 245 nM (IC50).
`Cc1nsc(NC(=O)N2CCC(C(=O)c3ccc(C(F)(F)F)cc3F)CC2)n1` [Example 142, 4-[2-fluoro-4-(trifluoromethyl)benzoyl]-N-(3-methyl-1,2,4-thiadiazol-5-yl)piperidine-1-carboxamide]: the IC50 was 86 nM.
The same measure, in the same setting: with `Cc1nsc(NC(=O)N2CCC(=Cc3ccc(N4CCCC4)cc3)CC2)n1` [Example 43] the figure was 439 nM; with `N#CCc1cc(NC(=O)N2CCC(=Cc3ccc(Cl)cc3F)CC2)ccn1` [Example 178, 4-[(4-chloro-2-fluoro-phenyl)methylene]-N-[2-(cyanomethyl)-4-pyridyl]piperidine-1-carboxamide], 155 nM.
On the same count and under the same terms, with `Cc1nsc(NC(=O)N2CCC(Cc3ccc(N4CCCC4)cc3)CC2)n1` [Example 42] the figure was 670 nM; with `Cc1nsc(NC(=O)N2CCC(C(=O)c3ccc(C#N)cc3F)CC2)n1` [Example 171], 67 nM; with `Cc1nsc(NC(=O)N2CCC(=Cc3ccc(C=O)cc3F)CC2)n1` [Example 88, 4-[(2-fluoro-4-formyl-phenyl)methylene]-N-(3-methyl-1,2,4-thiadiazol-5-yl)piperidine-1-carboxamide], 418 nM.
`Cc1cc(NC(=O)N2CCC(C(=O)c3ccc(C#N)cc3F)CC2)ccn1` [Example 172] gave an IC50 of 126 nM.
Consider `CNc1nsc(NC(=O)N2CCC(Cc3ccc(Cl)cc3F)CC2)n1` [Example 166, 4-[(4-chloro-2-fluoro-phenyl)methyl]-N-[3-(methylamino)-1,2,4-thiadiazol-5-yl]piperidine-1-carboxamide], for which the IC50 was 407 nM.
Same read-out and setting: the result for `Cc1nsc(NC(=O)N2CCC(=Cc3ccc(Cl)cc3F)C(F)C2)n1` (centres unmarked) [Example 106] reads 467 nM; that for `Cc1cc(NC(=O)N2CCC(=Cc3c(F)cc(C#N)cc3F)CC2)ccn1` [Example 175], 58 nM; that for `COC(=O)c1ccc(CC2CCN(C(=O)Nc3nc(C)ns3)CC2)c(F)c1` [Example 36], 540 nM.
With `CC(=C1CCN(C(=O)Nc2nc(C)ns2)CC1)c1ccc(Cl)cc1F` [Example 104], the IC50 was 642 nM.
`Cc1nsc(NC(=O)N2CCN(Cc3ccc(Cl)cc3F)CC(O)C2)n1` (centres unmarked) [Example 162] registered an IC50 of 162 nM.
As for `Cc1nsc(NC(=O)N2CCC(Cc3ccc(Cl)cn3)CC2)n1` [Example 61], the midpoint of inhibition, the IC50, lay at 516 nM.
In the case of `Cc1nsc(NC(=O)N2CCC(=Cc3ccc(N(C)CCCCN)cc3F)CC2)n1` [Example 163], the IC50 is 293 nM.
As for `Cc1cc(NC(=O)N2CCC(C(=O)c3ccc(N(C)C)cc3F)CC2)ccn1` [Example 156], the IC50 was 193 nM.
Same read-out and setting: with `CCN(CC)c1cc(F)c(C=C2CCN(C(=O)Nc3nc(C)ns3)CC2)c(F)c1` [Example 159] the figure was 215 nM; with `NCc1cc(NC(=O)N2CCC(=Cc3c(F)cc(Cl)cc3F)CC2)ccn1` [Example 180, N-[2-(aminomethyl)-4-pyridyl]-4-[(4-chloro-2,6-difluoro-phenyl)methylene]piperidine-1-carboxamide], 330 nM.
`Cc1nsc(NC(=O)N2CCC(=Cc3ccc(OCCCN)cc3F)CC2)n1` [Example 111] came in with an IC50 of 514 nM.
The same measure, in the same setting: the result for `Cc1nsc(NC(=O)N2CCC(=Cc3ccc(CN(C)CCO)cc3F)CC2)n1` [Example 90, 4-[[2-fluoro-4-[[2-hydroxyethyl(methyl)amino]methyl]phenyl]methylene]-N-(3-methyl-1,2,4-thiadiazol-5-yl)piperidine-1-carboxamide] reads 693 nM; that for `Cc1nsc(NC(=O)N2CCC(=Cc3ccc(N(C)CCN)cc3F)CC2)n1` [Example 122, 4-[[4-[2-aminoethyl(methyl)amino]-2-fluoro-phenyl]methylene]-N-(3-methyl-1,2,4-thiadiazol-5-yl)piperidine-1-carboxamide], 182 nM; that for `Cc1nsc(NC(=O)N2CCC(C(C)c3ccc(Cl)cc3F)CC2)n1` (centres unmarked) [Example 105], 482 nM.
Compound `Cc1nsc(NC(=O)N2CCCC(=Cc3ccc(N(C)C)cc3F)CC2)n1` [Example 125] gave an IC50 of 63 nM.
On the same count and under the same terms, with `Cc1cc(NC(=O)N2CCC(=Cc3ccc(Cl)cc3F)CC2)ncn1` [Example 136] the figure was 81 nM; with `Cc1cc(NC(=O)N2CCC(=Cc3ccc(N(C)C)cc3F)CC2)ccn1` [Example 132], 76 nM.
Compound `Cc1nsc(NC(=O)N2CCC(Cc3ccc(C(N)=O)cc3F)CC2)n1` [Example 37, 4-[(4-carbamoyl-2-fluoro-phenyl)methyl]-N-(3-methyl-1,2,4-thiadiazol-5-yl)piperidine-1-carboxamide] yielded an IC50 of 478 nM.
Compound `Cc1nsc(NC(=O)N2CCC(Cc3ccc(OCC(C)C)cc3F)CC2)n1` [Example 31] displayed a 50% inhibitory concentration (IC50) of 795 nM.
Compound `Cc1nsc(NC(=O)N2CCC(Oc3ccc(F)cc3)CC2)n1` [Example 73] displayed an IC50 of 465 nM.
On the same count and under the same terms, with `COCCC1CN(C(=O)Nc2nc(C)ns2)CC/C1=C/c1ccc(Cl)cc1F` (centres unmarked) [Example 134, (4Z)-4-[(4-chloro-2-fluoro-phenyl)methylene]-3-(2-methoxyethyl)-N-(3-methyl-1,2,4-thiadiazol-5-yl)piperidine-1-carboxamide] the figure was 449 nM; with `Cc1nsc(NC(=O)N2CCC(=Cc3ccc(C#CCO)cc3F)CC2)n1` [Example 170, 4-[[2-fluoro-4-(3-hydroxyprop-1-ynyl)phenyl]methylene]-N-(3-methyl-1,2,4-thiadiazol-5-yl)piperidine-1-carboxamide], 415 nM; with `O=C(Nc1ccncn1)N1CCC(Cc2ccc(Cl)cc2Cl)CC1` [Example 22, 4-[(2,4-dichlorophenyl)methyl]-N-pyrimidin-4-yl-piperidine-1-carboxamide], 837 nM.
